Our source for the IC50 values is patent publication US10221161B2, “Inhibitors of plasma kallikrein” (Kalvista Pharmaceuticals Limited, priority 2013, dated 2019).

In one experiment the target is Human plasma kallikrein (Homo sapiens (Human), UniProt P03952). The experiment is described as follows: Determination of the IC50 for plasma kallikrein (fluorogenic substrate H-DPro-Phe-Arg-AFC). The format is biochemical. The settings on record: 37° C., read-out: IC50 (human PKal). The protocol: Determination of the IC50 Plasma Kallikrein Plasma kallikrein inhibitory activity in vitro was determined using standard published methods (see e.g. Johansen et al., Int. J. Tiss. […] Shori et al., Biochem. Pharmacol., 1992, 43, 1209; Stürzebecher et al., Biol. Chem. Hoppe-Seyler, 1992, 373, 1025). Human plasma kallikrein (Protogen) was incubated at 37° C. with the fluorogenic substrate […] and various concentrations of the test compound.

For a further experiment, the target named is Human KLK1 (Homo sapiens (Human), UniProt P06870). The experiment is described as follows: Determination of the IC50 for KLK1 (fluorogenic substrate H-DVal-Leu-Arg-AFC). The format is biochemical. The settings on record: human KLK1, 37° C. Summed up:
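Inhibition of human KLK1 (Callbiochem) was measured in vitro following standard published methods. The enzyme was incubated at 37° C. with the fluorogenic substrate H-DVal-Leu-Arg-AFC across a range of test compound concentrations. Residual activity, taken as the initial reaction rate, was followed by […], and IC50 values were calculated.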

Structures are written as SMILES.

Chain of Human plasma kallikrein (P03952 391-638 limits assumed): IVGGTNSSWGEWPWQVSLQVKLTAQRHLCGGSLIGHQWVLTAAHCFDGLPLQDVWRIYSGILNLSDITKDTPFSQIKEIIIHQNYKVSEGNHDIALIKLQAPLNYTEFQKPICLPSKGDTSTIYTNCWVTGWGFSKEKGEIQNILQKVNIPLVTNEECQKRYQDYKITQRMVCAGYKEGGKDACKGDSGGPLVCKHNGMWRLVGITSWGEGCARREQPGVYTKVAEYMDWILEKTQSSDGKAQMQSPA
Chain of Human plasma kallikrein (P03952 20-390 partner limits assumed): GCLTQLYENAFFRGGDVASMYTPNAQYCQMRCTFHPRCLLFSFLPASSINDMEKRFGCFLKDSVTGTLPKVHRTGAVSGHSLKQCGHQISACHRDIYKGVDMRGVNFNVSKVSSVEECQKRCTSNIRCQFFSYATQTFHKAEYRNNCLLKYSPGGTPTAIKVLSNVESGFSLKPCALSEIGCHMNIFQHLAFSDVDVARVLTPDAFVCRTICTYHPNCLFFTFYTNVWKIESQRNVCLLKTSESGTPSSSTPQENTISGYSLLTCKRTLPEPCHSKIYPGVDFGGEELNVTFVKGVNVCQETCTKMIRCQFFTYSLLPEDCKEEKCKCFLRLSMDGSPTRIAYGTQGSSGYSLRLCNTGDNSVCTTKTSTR
Chain of Human KLK1 (P06870 25-262): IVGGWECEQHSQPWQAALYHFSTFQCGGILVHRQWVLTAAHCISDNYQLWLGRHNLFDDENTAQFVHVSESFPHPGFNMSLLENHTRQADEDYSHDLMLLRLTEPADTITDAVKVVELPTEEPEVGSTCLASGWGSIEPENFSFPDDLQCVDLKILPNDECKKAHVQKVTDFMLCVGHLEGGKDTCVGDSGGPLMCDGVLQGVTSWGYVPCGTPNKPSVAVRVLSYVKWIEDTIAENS

For `COc1cccc(CN2CCN(Cc3cncc(C(=O)NCc4ccc5c(N)nccc5c4)c3)CC2)c1` [Example 49, N-[(1-Aminoisoquinolin-6-yl)methyl]-5-({4-[(3-methoxyphenyl)methyl]piperazin-1-yl}methyl)pyridine-3-carboxamide], the results for the IC50 on Human plasma kallikrein and against Human KLK1 were 6990 nM and more than 10000 nM, respectively.

For `Nc1nccc2cc(CNC(=O)c3cncc(Cc4ccc(N5CCC(F)C5)nc4)c3)ccc12` (stereo not drawn) [Example 60, N-[(1-Aminoisoquinolin-6-yl)methyl]-5-{[6-(3-fluoropyrrolidin-1-yl)pyridin-3-yl]methyl}pyridine-3-carboxamide], the results for the IC50 at Human plasma kallikrein and on Human KLK1 were 137 nM and 8690 nM, respectively.

With `Nc1nccc2cc(CNC(=O)c3cncc(Cc4ccnc(N5CCCCC5)c4)c3)ccc12` [Example 78, N-[(1-Aminoisoquinolin-6-yl)methyl]-5-{[2-(piperidin-1-yl)pyridin-4-yl]methyl}pyridine-3-carboxamide], the IC50 on Human plasma kallikrein was 164 nM; on Human KLK1 it was 6930 nM.

Regarding `Nc1nccc2cc(CNC(=O)c3cncc(CN4CCN(C(=O)c5ccccc5)CC4)c3)ccc12` [Example 36, N-[(1-Aminoisoquinolin-6-yl)methyl]-5-[(4-benzoylpiperazin-1-yl)methyl]pyridine-3-carboxamide], the concentration for half-maximal inhibition (IC50) worked out at 6650 nM at Human plasma kallikrein and 23800 nM against Human KLK1.

`CN1CCN(c2cc(Cc3cncc(C(=O)NCc4ccc5c(N)nccc5c4)c3)ccn2)CC1` [Example 86, N-[(1-Aminoisoquinolin-6-yl)methyl]-5-{[2-(4-methylpiperazin-1-yl)pyridin-4-yl]methyl}pyridine-3-carboxamide]: the IC50 at Human plasma kallikrein was 395 nM; against Human KLK1 it was 4460 nM.

Regarding `CC1(C)CCN(c2ccc(Cc3cncc(C(=O)NCc4ccc5c(N)nccc5c4)c3)cn2)C1` [Example 74, N-[(1-Aminoisoquinolin-6-yl)methyl]-5-{[6-(3,3-dimethylpyrrolidin-1-yl)pyridin-3-yl]methyl}pyridine-3-carboxamide], the IC50 on Human plasma kallikrein was 83.1 nM; against Human KLK1 it was more than 10000 nM.

For `Nc1nccc2cc(CNC(=O)c3cncc(CN4CCN(Cc5ccccc5F)CC4)c3)ccc12` [Example 44, N-[(1-Aminoisoquinolin-6-yl)methyl]-5-({4-[(2-fluorophenyl)methyl]piperazin-1-yl}methyl)pyridine-3-carboxamide], the IC50 was found to be 6790 nM at Human plasma kallikrein and 28000 nM against Human KLK1.

Regarding `CC1CCCN1c1ccc(Cc2cncc(C(=O)NCc3ccc4c(N)nccc4c3)c2)cn1` (stereo not drawn) [Example 58, N-[(1-Aminoisoquinolin-6-yl)methyl]-5-{[6-(2-methylpyrrolidin-1-yl)pyridin-3-yl]methyl}pyridine-3-carboxamide], the IC50 on Human plasma kallikrein was determined as 153 nM; against Human KLK1 it was 6520 nM.

As to `CC(C)Oc1ccc(Cc2cncc(C(=O)NCc3ccc4c(N)nccc4c3)c2)cn1` [Example 70, N-[(1-Aminoisoquinolin-6-yl)methyl]-5-[(6-isopropoxypyridin-3-yl)methyl]pyridine-3-carboxamide], the IC50 was 1740 nM at Human plasma kallikrein and more than 10000 nM at Human KLK1.

`Nc1nccc2cc(CNC(=O)c3cncc(Cc4ccc(N5CCC(O)C5)nc4)c3)ccc12` (stereo not drawn) [Example 59, N-[(1-Aminoisoquinolin-6-yl)methyl]-5-{[6-(3-hydroxypyrrolidin-1-yl)pyridin-3-yl]methyl}pyridine-3-carboxamide]: the 50% inhibitory concentration (IC50) came to 417 nM at Human plasma kallikrein and 6010 nM on Human KLK1.

Turning to `Nc1nccc2cc(CNC(=O)c3cncc(CN4CCN(CCCc5ccccc5)CC4)c3)ccc12` [Example 50, N-[(1-Aminoisoquinolin-6-yl)methyl]-5-{[4-(3-phenylpropyl)piperazin-1-yl]methyl}pyridine-3-carboxamide], the IC50 on Human plasma kallikrein is 10000 nM; at Human KLK1 it was more than 10000 nM.

With `Nc1nccc2cc(CNC(=O)c3cncc(Cc4ccnc(N5CCC(F)C5)c4)c3)ccc12` (stereo not drawn) [Example 82, N-[(1-Aminoisoquinolin-6-yl)methyl]-5-{[2-(3-fluoropyrrolidin-1-yl)pyridin-4-yl]methyl}pyridine-3-carboxamide], the IC50 on Human plasma kallikrein turned out to be 67.8 nM; on Human KLK1, 4000 nM.

Consider `Nc1nccc2cc(CNC(=O)c3cncc(Cc4ccc(N5CCCC5CO)nc4)c3)ccc12` (stereo not drawn) [Example 67, N-[(1-Aminoisoquinolin-6-yl)methyl]-5-({6-[2-(hydroxymethyl)pyrrolidin-1-yl]pyridin-3-yl}methyl)pyridine-3-carboxamide], for which the IC50 on Human plasma kallikrein was determined as 73.3 nM; against Human KLK1, 5150 nM.

Regarding `Cc1ccc2cc(Cn3cc(C(=O)NCc4ccc5c(N)nccc5c4)ccc3=O)ccc2n1` [Example 16, N-[(1-Aminoisoquinolin-6-yl)methyl]-1-[(2-methylquinolin-6-yl)methyl]-6-oxopyridine-3-carboxamide], the IC50 worked out at 179 nM at Human plasma kallikrein and 2060 nM on Human KLK1.

With `Nc1nccc2cc(CNC(=O)c3cncc(Cc4ccnc(N5CCOCC5)c4)c3)ccc12` [Example 85, N-[(1-Aminoisoquinolin-6-yl)methyl]-5-{[2-(morpholin-4-yl)pyridin-4-yl]methyl}pyridine-3-carboxamide], the IC50 at Human plasma kallikrein was 1670 nM; against Human KLK1, 8540 nM.

Regarding `CN1CCOc2cc(Cc3cncc(C(=O)NCc4ccc5c(N)nccc5c4)c3)ccc21` [Example 38, N-[(1-Aminoisoquinolin-6-yl)methyl]-5-[(4-methyl-2,3-dihydro-1,4-benzoxazin-7-yl)methyl]pyridine-3-carboxamide], the IC50 at Human plasma kallikrein came out at 107 nM; against Human KLK1, 8600 nM.

On to `COc1ncc(C(=O)NCc2ccc3c(N)nccc3c2)cc1Cc1ccc2nc(C)ccc2c1` [Example 18, N-[(1-Aminoisoquinolin-6-yl)methyl]-6-methoxy-5-[(2-methylquinolin-6-yl)methyl]pyridine-3-carboxamide], for which the IC50 on Human plasma kallikrein turned out to be 702 nM; against Human KLK1, 1740 nM.

With `COC1CCN(c2ccc(Cc3cncc(C(=O)NCc4ccc5c(N)nccc5c4)c3)cn2)C1` (stereo not drawn) [Example 62, N-[(1-Aminoisoquinolin-6-yl)methyl]-5-{[6-(3-methoxypyrrolidin-1-yl)pyridin-3-yl]methyl}pyridine-3-carboxamide], the IC50 came to 255 nM at Human plasma kallikrein and 8890 nM against Human KLK1.

On to `Cc1cnn(Cc2ccc(Cc3cncc(C(=O)NCc4c(C)cc(CN)cc4C)n3)cc2)c1` [Example 95, N-{[4-(Aminomethyl)-2,6-dimethylphenyl]methyl}-6-({4-[(4-methylpyrazol-1-yl)methyl]phenyl}methyl)pyrazine-2-carboxamide], for which the IC50 was 53.6 nM at Human plasma kallikrein and more than 40000 nM against Human KLK1.

In the case of `CC1CCN(c2cc(Cc3cncc(C(=O)NCc4ccc5c(N)nccc5c4)c3)ccn2)C1` (stereo not drawn) [Example 83, N-[(1-Aminoisoquinolin-6-yl)methyl]-5-{[2-(3-methylpyrrolidin-1-yl)pyridin-4-yl]methyl}pyridine-3-carboxamide], the values for the half-inhibitory concentration (IC50) at Human plasma kallikrein and against Human KLK1 were 106 nM and 2870 nM, respectively.

For `Nc1nccc2cc(CNC(=O)c3cncc(Cc4csc(-c5ccccc5)n4)c3)ccc12` [Example 24, N-[(1-Aminoisoquinolin-6-yl)methyl]-5-[(2-phenyl-1,3-thiazol-4-yl)methyl]pyridine-3-carboxamide], the IC50 at Human plasma kallikrein worked out at 1710 nM; at Human KLK1, 4000 nM.

On to `Nc1nccc2cc(CNC(=O)c3cncc(Cc4ccc(N5CCC(CO)C5)nc4)c3)ccc12` (stereo not drawn) [Example 71, N-[(1-Aminoisoquinolin-6-yl)methyl]-5-({6-[3-(hydroxymethyl)pyrrolidin-1-yl]pyridin-3-yl}methyl)pyridine-3-carboxamide], for which the IC50 at Human plasma kallikrein was determined as 306 nM; at Human KLK1 it was 3950 nM.

Turning to `Cc1cnn(CCOCc2cncc(C(=O)NCc3ccc4c(N)nccc4c3)c2)c1` [Example 40, N-[(1-Aminoisoquinolin-6-yl)methyl]-5-{[2-(4-methylpyrazol-1-yl)ethoxy]methyl}pyridine-3-carboxamide], the IC50 was 127 nM at Human plasma kallikrein and 4870 nM on Human KLK1.

With `Nc1nccc2cc(CNC(=O)c3cncc(Cc4cccc(Cn5cccn5)c4)c3)ccc12` [Example 32, N-[(1-Aminoisoquinolin-6-yl)methyl]-5-{[3-(pyrazol-1-ylmethyl)phenyl]methyl}pyridine-3-carboxamide], the half-inhibitory concentration (IC50) on Human plasma kallikrein turned out to be 237 nM; on Human KLK1, 9530 nM.

`Cc1cnn(Cc2ccc(C(O)c3cncc(C(=O)NCc4ccc5c(N)nccc5c4)c3)cc2)c1` (stereo not drawn) [Example 7, N-((1-Aminoisoquinolin-6-yl)methyl)-5-(hydroxy(4-((4-methyl-1H-pyrazol-1-yl)methyl)phenyl)methyl)nicotinamide]: the IC50 at Human plasma kallikrein was determined as 35.3 nM; on Human KLK1 it was 8020 nM.

Turning to `COCCOc1ccc(Cc2cncc(C(=O)NCc3ccc4c(N)nccc4c3)c2)cc1` [Example 34, N-[(1-Aminoisoquinolin-6-yl)methyl]-5-{[4-(2-methoxyethoxy)phenyl]methyl}pyridine-3-carboxamide], the IC50 on Human plasma kallikrein is 1020 nM; on Human KLK1, more than 40000 nM.

On to `Cc1cnn(Cc2ccc(Cc3cncc(C(=O)NCc4c(C)nc5[nH]ccc(C)c4-5)c3)cc2)c1` [Example 12, N-({2,4-Dimethyl-7H-pyrrolo[2,3-b]pyridin-3-yl}methyl)-5-({4-[(4-methylpyrazol-1-yl)methyl]phenyl}methyl)pyridine-3-carboxamide], for which the results for the IC50 at Human plasma kallikrein and at Human KLK1 were 244 nM and 14900 nM, respectively.

One may read the IC50 as the concentration at which inhibition is half-maximal.
